Article PMC3171603 (Bioorganic & medicinal chemistry letters, 2011)

Columns and labels:
HIV-1 NL4-3 = assay: HIV-1 infectivity assay; assay type: cell-based; conditions: for anti-HIV activity: TZM-bl cells, statement in words
[1] = Cytotoxicity: growth inhibition of uninfected TZM-bl cells; assay type: cell-based; conditions: human

EC50 (HIV-1 NL4-3; Human immunodeficiency virus 1, NL43, TZM-bl) [nM] | Compound | anti-HIV activity (HIV-1 NL4-3) | CC50 [1] [µM]
 | Cc1cc(=O)oc2c3c(ccc12)SC(C)(C)[C@@H](OC(=O)[C@@]12CC[C@@](C)(C(=O)O1)C2(C)C)[C@H]3OC(=O)[C@@]12CC[C@@](C)(C(=O)O1)C2(C)C [Compound 8b] | remarkably reduced or even completely abolished | 
 | CCc1cc(=O)c2ccc3c(c2o1)[C@H](OC(=O)C12CCC(C)(C(=O)O1)C2(C)C)[C@H](OC(=O)C12CCC(C)(C(=O)O1)C2(C)C)[C@@H](C)S3 (some centres unmarked) [Compound 6b] | remarkably reduced or even completely abolished | 
120 | CCc1cc(=O)c2ccc3c(c2o1)[C@@H](OC(=O)C12CCC(C)(C(=O)O1)C2(C)C)[C@@H](OC(=O)C12CCC(C)(C(=O)O1)C2(C)C)C(C)(C)O3 (some centres unmarked) [Compound 2-Ethyl-DCP, 2-ethyl-DCP, reference compound] |  | 14.3
 | Cc1cc(=O)oc2c3c(ccc12)SC(C)(C)[C@H](OC(=O)[C@@]12CC[C@@](C)(C(=O)O1)C2(C)C)[C@@H]3OC(=O)[C@@]12CC[C@@](C)(C(=O)O1)C2(C)C [Compound 8a, 4-Methyl-1′-thia-DCK] |  | > 30.6
